Data: patent US11793823B2, “Compounds and pharmaceutical uses thereof” (SyneuRx International (Taiwan) Corp., priority 2020, dated 2023)
Like-named read-outs stand apart in the source and are kept apart here.

How the values were obtained:
[1] = test system: MK-801 treated mice; experiment: Open field test, MK-801 induced hyper-locomotion; type: in vivo; conditions: for relief of MK801-induced hyperactivity: MK-801 0.2 mg/kg i.p., open field
Description: (§1) C57BL/6J male mice were group housed (3-5 mice per cage) with food and water available ad libitum in polysulfone ventilated cages (Alternative Design, AR, USA) in the animal room of SyneuRx. The colony was maintained on a 12/12-h light/dark cycle at the temperature of 22±2° C. and all behavioral studies were performed during the dark cycle. All animals used in this study were adult mice (at least 2.5 months of age). All animal procedures were performed according to the protocols approved by Institutional Animal Care and Use Committee (IACUC).
(§2) The mice were randomly assigned into five groups for open field test, Group 1: vehicle control, Group 2: MK-801, Group 3: Compound 66 at 10 mg/kg+MK-801, Group 4: Compound 66 at 30 mg/kg+MK-801, Group 5: Compound 66 at 100 mg/kg+MK-801. Mice at Group 2-5 received an acute administration of MK-801 (Sigma-Aldrich USA), a NMDA receptor antagonist, dissolved in normal saline, at 0.2 mg/kg for open field. For pre-pulse inhibition (PPI) test, animal was randomly assigned for four groups, Group 1: vehicle control, Group 2: MK-801, Group 3: Compound 66 at 3 mg/kg+MK-801, Group 4: Compound 66 at 10 mg/kg. Group 2-4 was received 0.3 mg/kg, MK-801. MK-801 was administrated by i.p. injection 20 minutes prior to open field and PPI tests. Test article, compound 66 (dissolved in ddH2O with 65% PEG400 and 10% DMSO), was orally treated 20 minutes prior to the MK-801 administration.
The open field task is a common measurement of novelty induced exploratory behavior and general activity in both mice and rats. The objective of this experiment was to evaluate the efficacy of compound 66 on attenuating the MK-801 induced hyper-locomotion. In this study, the mice were placed in a Plexiglas cage (37.5 cm×21.5 cm×18 cm) under 50-65 lux light intensity. Their spontaneous locomotor activities were measured for 60 minutes using the Photobeam Activity System (PAS)-open field (San Diego Instruments, San Diego, CA, USA). The total number of photo beam breaks of each mouse was measured as an index of locomotion activity.
as §2, with “74” for “66”, “field test.” for “field.”
All mice were tested with open field and pre-pulse inhibition tasks. The open field and pre-pulse inhibition tasks were used to evaluate the efficacy of the compound 74 on attenuating the MK-801 induced hyper-locomotion and deficit of sensorimotor gating function in mice, respectively. The apparatus and recording method of open field and pre-pulse inhibition task were as described above in Example 45.
Mice at Group 2-5 received an acute administration of MK-801 (Sigma-Aldrich USA), a NMDA receptor antagonist, dissolved in normal saline, at 0.2 mg/kg for open field test. […] Group […] was received 0.3 mg/kg, MK-801. MK-801 was administrated by i.p. injection 20 minutes prior to open field and PPI tests.
The open field task is a common measurement of novelty induced exploratory behavior and general activity in both mice and rats. […] In this study, the mice were placed in a Plexiglas cage (37.5 cm×21.5 cm×18 cm) under 50-65 lux light intensity. […]

[2] = test system: MK-801 treated mice; experiment: Pre-pulse inhibition (PPI) test, MK-801 induced deficit of sensorimotor gating; type: in vivo; conditions: MK-801 0.3 mg/kg i.p.
Description: as §1, §2
Pre-pulse inhibition, using SR-LAB startle apparatus (San Diego Instruments, San Diego, CA, USA), was used to determine the efficacy of compound 66 on attenuating the MK-801 induced deficit of sensorimotor gating function in mice. Under 65 dB background noise, each session was composed of a 5-minute accumulation period followed by 64 trials in four blocks. The pulse alone (PA) trial was a 40 ms, 120 dB white noise burst. In the prepulse (pp)+pulse trials, a 20 ms white noise prepulse stimuli of 71 dB (pp6), 75 dB (pp10), and 83 dB (pp18) were presented 100 ms before a 40 ms 120 dB pulse. The non-stimulus (NS) trials presented the background noise only. The initial and the last blocks were composed of six PA trials, respectively. Two middle blocks consisted of PA, pp+pulse, and NS trials. These trials were presented pseudo-randomly and separated by intertribal intervals of 15 seconds on average (varying between 10 to 20 s). The percentage of prepulse inhibition was evaluated by the following formula: % PPI=100×[(PA score)−(pp-P score)]/(PA score), where the PA score was the average of the PA value in the middle blocks.
as §2, with “74” for “66”, “field test.” for “field.”
All mice were tested with open field and pre-pulse inhibition tasks. The open field and pre-pulse inhibition tasks were used to evaluate the efficacy of the compound 74 on attenuating the MK-801 induced hyper-locomotion and deficit of sensorimotor gating function in mice, respectively. The apparatus and recording method of open field and pre-pulse inhibition task were as described above in Example 45. […]

[3] = molecular target: human D-amino acid oxidase (hDAAO) (Homo sapiens (Human), UniProt P14920); experiment: In vitro human D-amino acid oxidase (hDAAO) activity, D-Serine/Amplex Red fluorescence; type: biochemical; conditions: D-Serine substrate, 20 min
Chain of human D-amino acid oxidase (hDAAO) (P14920 whole entry): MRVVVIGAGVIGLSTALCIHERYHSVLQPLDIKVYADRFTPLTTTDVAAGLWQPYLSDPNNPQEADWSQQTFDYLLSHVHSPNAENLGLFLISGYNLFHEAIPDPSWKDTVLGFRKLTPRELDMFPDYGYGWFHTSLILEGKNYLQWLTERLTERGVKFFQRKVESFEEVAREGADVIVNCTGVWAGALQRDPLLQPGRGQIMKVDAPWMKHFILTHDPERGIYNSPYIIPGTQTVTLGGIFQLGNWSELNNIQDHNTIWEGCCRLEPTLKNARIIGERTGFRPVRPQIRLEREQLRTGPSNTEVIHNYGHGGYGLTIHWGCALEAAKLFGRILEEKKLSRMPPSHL
Method in brief: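 Recombinant hDAAO activity with D-serine as substrate; H2O2 was coupled via HRP to Amplex Red and fluorescence read at ex 530/em 590 nm at 0 and 20 min, dark, room temperature, Tris pH 8.5 with FAD. Inhibition came from the 20–0 min signal change relative to DMSO, and IC50 from nonlinear fits of 3-fold dilutions run in triplicate.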

[4] = molecular target: SARS-CoV-2 3CLPro (Severe acute respiratory syndrome coronavirus 2 (2019-nCoV) (SARS-CoV-2), UniProt P0DTD1); experiment: biochemical; conditions: final DMSO concentration 2%
[5] = 75 dB and 83 dB pre-pulse, 3 mg/kg oral
[6] = 75 dB and 83 dB pre-pulse, 10 mg/kg oral

SMILES: O=C(O)c1cc(O)c(O)c(OC(=O)c2cc(O)c(O)c(OC(=O)c3cc(O)c(O)c(OC(=O)c4cc(O)c(O)c(OC(=O)c5cc(O)c(O)c(OC(=O)c6cc(CCc7ccc(C(F)(F)F)cc7)n[nH]6)c5)c4)c3)c2)c1 [Compound 66, 3-((3-((3-((3-((3,4-dihydroxy-5-((3-(4-(trifluoromethyl)phenethyl)-1H-pyrazole-5-carbonyl)oxy)benzoyl)oxy)-4,5-dihydroxybenzoyl)oxy)-4,5-dihydroxybenzoyl)oxy)-4,5-dihydroxybenzoyl)oxy)-4,5-dihydroxybenzoic acid]
- effect on MK-801 induced hyper-locomotion vs MK-801 group ([1]; 10, 30 and 100 mg/kg oral, dose-dependent): significantly reduced
- relief of MK801-induced hyperactivity ([1]; high dose 100 mg/kg oral): 67%
- effect on pre-pulse inhibition vs MK-801 group ([2]; 71 dB pre-pulse, 10 mg/kg oral): relieve PPI deficit to basal level
- effect on pre-pulse inhibition vs MK-801 group [2, 5]: marginal improvement
- effect on pre-pulse inhibition vs MK-801 group [2, 6]: significantly higher percentage of pre-pulse inhibition
- IC50 [3]: 25 nM

SMILES: O=C(O)c1cc(O)c(O)c(OC(=O)c2cc(O)c(O)c(OC(=O)c3cc(O)c(O)c(OC(=O)c4cc(O)c(O)c(OC(=O)c5cc(O)c(O)c(OC(=O)c6cc(CCc7ccccc7C(F)(F)F)n[nH]6)c5)c4)c3)c2)c1 [Compound 74, 3-((3-((3-((3-((3,4-dihydroxy-5-((3-(2-(trifluoromethyl)phenethyl)-1H-pyrazole-5-carbonyl)oxy)benzoyl)oxy)-4,5-dihydroxybenzoyl)oxy)-4,5-dihydroxybenzoyl)oxy)-4,5-dihydroxybenzoyl)oxy)-4,5-dihydroxybenzoic acid]
- effect on MK-801 induced hyper-locomotion vs MK-801 group ([1]; 30 mg/kg and 100 mg/kg oral): significantly reduced
- effect on MK-801 induced hyper-locomotion vs MK-801 group ([1]; low dose 10 mg/kg oral): marginally lower locomotion activity
- relief of MK801-induced hyperactivity ([1]; middle (30 mg/kg) and high dose (100 mg/kg) oral as worded): 69%
- effect on pre-pulse inhibition vs MK-801 group [2, 6]: significantly improved PPI
- IC50 [3]: 31 nM
- IC50 ([4]; read-out: IC50): > 31200 nM
- IC50 ([4]; read-out: IC50 (μg/mL) (converted)): > 31200 nM

SMILES: O=C(Oc1cc(C(=O)Oc2cc(C(=O)Oc3cc(C(=O)O[C@H]4OC[C@@H](OC(=O)c5cc(O)c(O)c(OC(=O)c6cc(O)c(O)c(OC(=O)c7cc(O)c(O)c(OC(=O)c8cc(O)c(O)c(O)c8)c7)c6)c5)[C@H](OC(=O)c5cc(O)c(O)c(OC(=O)c6cc(O)c(O)c(OC(=O)c7cc(O)c(O)c(OC(=O)c8cc(O)c(O)c(O)c8)c7)c6)c5)[C@H]4OC(=O)c4cc(O)c(O)c(OC(=O)c5cc(O)c(O)c(OC(=O)c6cc(O)c(O)c(OC(=O)c7cc(O)c(O)c(O)c7)c6)c5)c4)cc(O)c3O)cc(O)c2O)cc(O)c1O)c1cc(O)c(O)c(O)c1 [Compound 121, (2R,3R,4S,5R)-tetrahydro-2H-pyran-2,3,4,5-tetrayl tetrakis(3-((3-((3,4-dihydroxy-5-((3,4,5-trihydroxybenzoyl)oxy)benzoyl)oxy)-4,5-dihydroxybenzoyl)oxy)-4,5-dihydroxybenzoate)]
- effect on MK-801 induced hyper-locomotion vs MK-801 group ([1]; 3 mg/kg and 10 mg/kg oral): marginally lower locomotion activity
- effect on MK-801 induced hyper-locomotion vs MK-801 group ([1]; high dose 30 mg/kg oral): significantly reduced
- relief of MK801-induced hyperactivity ([1]; high dose 30 mg/kg oral): 48%
- effect on pre-pulse inhibition vs MK-801 group ([2]; 75 and 83 dB pre-pulse, all tested doses 3, 10 and 30 mg/kg oral): higher potency
- IC50 [3]: 2.5 nM

SMILES: O=C(OC[C@H]1O[C@H](OC(=O)c2cc(O)c(O)c(OC(=O)c3cc(O)c(O)c(OC(=O)c4cc(O)c(O)c(OC(=O)c5cc(O)c(O)c(O)c5)c4)c3)c2)[C@H](OC(=O)c2cc(O)c(O)c(OC(=O)c3cc(O)c(O)c(OC(=O)c4cc(O)c(O)c(OC(=O)c5cc(O)c(O)c(O)c5)c4)c3)c2)[C@@H]1OC(=O)c1cc(O)c(O)c(OC(=O)c2cc(O)c(O)c(OC(=O)c3cc(O)c(O)c(OC(=O)c4cc(O)c(O)c(O)c4)c3)c2)c1)c1cc(O)c(O)c(OC(=O)c2cc(O)c(O)c(OC(=O)c3cc(O)c(O)c(OC(=O)c4cc(O)c(O)c(O)c4)c3)c2)c1 [Compound 138, (2R,3R,4R,5R)-5-(((3-((3-((3,4-dihydroxy-5-((3,4,5-trihydroxybenzoyl)oxy)benzoyl)oxy)-4,5-dihydroxybenzoyl)oxy)-4,5-dihydroxybenzoyl)oxy)methyl)tetrahydrofuran-2,3,4-triyl tris(3-((3-((3,4-dihydroxy-5-((3,4,5-trihydroxybenzoyl)oxy)benzoyl)oxy)-4,5-dihydroxybenzoyl)oxy)-4,5-dihydroxybenzoate)]
- effect on MK-801 induced hyper-locomotion vs MK-801 group ([1]; 3, 10 and 30 mg/kg oral, dose-dependent): significantly reduced
- relief of MK801-induced hyperactivity ([1]; high dose 30 mg/kg oral): 43%
- effect on pre-pulse inhibition vs MK-801 group [2, 5]: relieve PPI deficit
- IC50 [3]: 4 nM
